In series [1] the target is T1, hemagglutinin (HA-N-terminus) tagged mouse μOR (Mus musculus, UniProt P42866).
T1 construct: expressed in transfected cells
In words: Phospho-ERK1/2 immunoblot assay. The format is cell-based.

Another series has as its target μOR (Homo sapiens, UniProt P35372). To be noted: CHO cells stably expressing each receptor type; cited from earlier work.
Another series deals with T2, HA-N-terminus tagged μOR (Mus musculus, UniProt P42866).
T2 construct: expressed in transfected cells
Kind of series: Immunofluorescence of cell surface receptors. The format is cell-based. The conditions noted are these: intact nonpermeabilized HEK-293 cells; drug treatment over 2 hours.

For series [2], the target named is T3, μOR1-D splice variant of the mouse μOR (Mus musculus, UniProt P42866).
T3 construct: expressed in transfected cells; host or cells: HEK-293 (transient)
In words: Agonist-induced μOR1-D-GFP internalization. It is filed as cell-based. The conditions noted are these: HEK-293 transiently transfected with μOR1-D-GFP.

Series [3] addresses T4, HA-tagged mu opioid receptor (Mus musculus, UniProt P42866).
T4 construct: expressed in transfected cells
Kind of series: Immunoprecipitation / μOR phosphorylation at serine 375. The format is cell-based. To be noted: HEK-293 cells stably expressing HA-tagged μOR; 10 μM, 10 min.

For series [4], the system named is formalin-induced nociceptive responses. In words: Formalin rat paw withdrawal test. The format is in vivo. From the text:
Animals: Male Sprague-Dawley rats (Harlan, Indianapolis, Ind.) weighing 250-275 g were used. Rats were housed one to two per cage with free access to food and water, and maintained on a 12-h light/dark cycle in the Association for the Assessment and Accreditation of Laboratory Animal Care-approved animal care facility. The Institutional Animal Care and Use Committee of The University of Iowa approved all experimental procedures.
Formalin Rat Paw Withdrawal Test: Rats were placed in clear plexiglass testing chambers (30.5×30.5×30.5 cm) and allowed to acclimate for 20 minutes. A mirror was placed at a 45° angle below the floor to allow for an unobstructed view of the rats paws. No restraint was placed on the rats and a HEPA filter was continuously run in order to mask external noise. Following the 20-min acclimation period, animals received a 100 μL injection of either Compound Vb (˜0.04 mg/kg) or vehicle subcutaneously in the paw and were placed back into the testing chamber for 5 minutes (Joshi et al., 2000; Joshi and Gebhart, 2003). Animals were then injected with 100 μL of a 1.25% formalin solution into the plantar surface according to the methods previously described (Dubuisson, D. & Dennis, S. G., […], Pain 4, 161-74; Wheeler-Aceto, H. & Cowan, A., 1991, Psychopharmacology (Berl) 104, 35-44; and Kaneko, M. & Hammond, D. L., 1997, J Pharmacol Exp Ther 282, 928-38). Behavior was observed and tracked for 1 hour and the number of flinches was recorded using a Windows XP-based (Microsoft, Seattle, Wash.) program. Each drug treatment group consisted of 6 rats and no rat was tested more than once. For the antagonist studies, rats were pretreated with either nor-binaltorphimine (nor-BNI) (5 mg/kg, 24 hours prior to agonist) or naloxone (5 mg/kg s.c. 30 min prior to agonist) subcutaneously behind the neck.
Chronic study: Chronic animals were given vehicle or Compound Vb alternating dorsal and plantar surface to avoid sensitization caused from injections at the same site over a 5 day period. Following administration of drug on the fifth day, rats were then administered formalin and observed as described above.

Another series deals with δOR (Homo sapiens, UniProt P41143). To be noted: CHO cells stably expressing each receptor type; cited from earlier work.
Chain of δOR (P41143 whole entry): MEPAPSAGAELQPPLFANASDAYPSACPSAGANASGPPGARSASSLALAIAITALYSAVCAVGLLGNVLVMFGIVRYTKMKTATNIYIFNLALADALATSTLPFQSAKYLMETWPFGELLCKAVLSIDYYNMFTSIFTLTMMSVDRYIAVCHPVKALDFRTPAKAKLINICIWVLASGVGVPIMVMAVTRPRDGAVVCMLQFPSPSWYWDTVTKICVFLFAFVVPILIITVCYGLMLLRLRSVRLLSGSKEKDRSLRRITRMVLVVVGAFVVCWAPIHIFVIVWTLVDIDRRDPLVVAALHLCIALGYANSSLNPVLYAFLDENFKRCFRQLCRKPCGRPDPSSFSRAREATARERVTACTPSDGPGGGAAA
In the next series the target is κOR (Homo sapiens, UniProt P41145). The conditions noted are these: cited from earlier work.
Chain of κOR (P41145 whole entry): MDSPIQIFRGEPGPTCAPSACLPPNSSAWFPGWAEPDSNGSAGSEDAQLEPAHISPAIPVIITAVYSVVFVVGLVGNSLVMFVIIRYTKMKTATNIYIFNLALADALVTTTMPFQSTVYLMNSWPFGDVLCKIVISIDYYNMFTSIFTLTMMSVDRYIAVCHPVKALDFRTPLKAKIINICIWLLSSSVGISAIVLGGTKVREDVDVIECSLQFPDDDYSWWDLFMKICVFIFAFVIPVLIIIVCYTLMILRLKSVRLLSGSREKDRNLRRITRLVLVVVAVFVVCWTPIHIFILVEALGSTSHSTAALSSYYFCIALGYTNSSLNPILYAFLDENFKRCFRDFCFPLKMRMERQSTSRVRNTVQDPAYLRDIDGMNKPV
For the next series, the target named is T5, mouse μOR-YFP (Mus musculus, UniProt P42866).
T5 construct: expressed in transfected cells; host or cells: HEK-293 (transient; GRK2 co-transfected in panel C)
Kind of series: Agonist-induced internalization of μOR-YFP in HEK-293 cells. It is filed as cell-based.

The target of a further series is T6, HA-μOR (Mus musculus, UniProt P42866).
T6 construct: expressed in transfected cells; host or cells: HEK-293 (transient)
In words: Agonist-induced βarr2-GFP translocation to μOR in HEK-293 cells. It is filed as cell-based.

Series [5] relates to formalin-induced nociceptive responses. To be noted: similar testing conditions (literature); cited from earlier work.
The mark [6] stands for this setting: HEK-293 transiently transfected with mouse μOR-YFP.

Chain of μOR (P35372 whole entry): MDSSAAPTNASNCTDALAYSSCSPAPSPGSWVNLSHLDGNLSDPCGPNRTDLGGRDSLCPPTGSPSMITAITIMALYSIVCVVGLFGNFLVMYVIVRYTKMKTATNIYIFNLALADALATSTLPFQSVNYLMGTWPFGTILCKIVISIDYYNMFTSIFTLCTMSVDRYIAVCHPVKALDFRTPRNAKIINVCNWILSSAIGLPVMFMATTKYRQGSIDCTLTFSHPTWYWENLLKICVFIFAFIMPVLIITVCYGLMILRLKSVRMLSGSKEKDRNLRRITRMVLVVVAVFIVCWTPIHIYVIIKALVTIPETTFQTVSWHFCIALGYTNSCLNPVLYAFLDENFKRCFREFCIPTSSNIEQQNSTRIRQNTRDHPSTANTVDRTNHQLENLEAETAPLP

In general, melting point refers to the temperature of the solid-liquid transition. On to `COC(=O)[C@@H]1C[C@H](OC(=O)c2ccccc2Br)C(=O)[C@@H]2[C@@]3(C)C[C@@H](c4ccoc4)OC(=O)[C@H]3CC[C@]21C`, for which the melting point fell in the range of 189 to 191 °C.
Still for that read-out and setting: next, `COC(=O)[C@@H]1C[C@H](OC(=O)c2cccc(Br)c2)C(=O)[C@@H]2[C@@]3(C)C[C@@H](c4ccoc4)OC(=O)[C@H]3CC[C@]21C`: 195 to 199 °C; `COC(=O)[C@@H]1C[C@H](OC(=O)c2cccs2)C(=O)[C@H]2[C@@]1(C)CC[C@H]1C(=O)O[C@H](c3ccoc3)C[C@]21C`: 143 to 145 °C; `COC(=O)[C@@H]1C[C@H](OC(=O)c2ccsc2)C(=O)[C@H]2[C@@]1(C)CC[C@H]1C(=O)O[C@H](c3ccoc3)C[C@]21C`: 211 to 212 °C.
As for `COC(=O)[C@@H]1C[C@H](OC(=O)c2cc3ccccc3o2)C(=O)[C@H]2[C@@]1(C)CC[C@H]1C(=O)O[C@H](c3ccoc3)C[C@]21C`, the melting point fell in the range of 226 to 227 °C.
On to `COC(=O)[C@@H]1C[C@H](OS(=O)(=O)c2ccccc2)C(=O)[C@@H]2[C@@]3(C)C[C@@H](c4ccoc4)OC(=O)[C@H]3CC[C@]21C`, for which the melting point is 157 to 159 °C (dec.).
As for `COC(=O)[C@@H]1C[C@H](OS(=O)(=O)c2ccc(C)cc2)C(=O)[C@@H]2[C@@]3(C)C[C@@H](c4ccoc4)OC(=O)[C@H]3CC[C@]21C`, the melting point is 163 to 165 °C (dec.).
Same read-out and setting: next, `COC(=O)[C@@H]1C[C@H](OS(=O)(=O)c2ccc(OC)cc2)C(=O)[C@@H]2[C@@]3(C)C[C@@H](c4ccoc4)OC(=O)[C@H]3CC[C@]21C`: 148 to 149 °C (dec.).
Still for that read-out and setting: the same measure for `COC(=O)[C@@H]1C[C@H](OC(=O)Nc2ccc([N+](=O)[O-])cc2)C(=O)[C@H]2[C@@]1(C)CC[C@H]1C(=O)O[C@H](c3ccoc3)C[C@]21C`: 251 to 253 °C; for `COC(=O)[C@@H]1C[C@H](OC(=O)Cc2ccccc2)C(=O)[C@@H]2[C@@]3(C)C[C@@H](c4ccoc4)OC(=O)[C@H]3CC[C@]21C`: 111 to 114 °C; for `COC(=O)[C@@H]1C[C@@H](C(=O)CCc2ccccc2)C(=O)[C@@H]2[C@@]3(C)C[C@@H](c4ccoc4)OC(=O)[C@H]3CC[C@]21C`: 155 to 158 °C.
With `COC(=O)[C@@H]1C[C@H](OC(=O)c2ccccc2)C(=O)[C@H]2[C@@]1(C)CC[C@H]1C(=O)OC(c3ccoc3)C[C@]21C` (stereo partly shown) [Compound Vb], the ERK1/2 phosphorylation entry in [1] (HEK-293 cells stably expressing HA-tagged mouse μOR, 10 min stimulation) was “dose dependently activates the Map Kinases, ERK1/2, in a μOR antagonist reversible manner”. In addition, in [1] (naloxone 10 μM during the 30 min serum starvation), the “Compound Vb-induced ERK activation after naloxone pretreatment” value was “blocked”. In addition, the “affinity for μOR relative to κOR” value at μOR was “greater affinity for μOR over κOR”. For the same molecule, the “loss of cell surface receptors” value at HA-N-terminus tagged μOR is “maintain the same level of cell surface receptor expression”. Moreover, in series [2], the μOR1-D internalization entry is given as “fails to internalize this receptor variant”. For the same molecule, the “μOR phosphorylation at serine 375” value in series [3] is recorded as “does not promote robust phosphorylation”. Besides, the “total number of flinches in second phase of formalin test” value in series [4] (acute (Day 1) and chronic (Day 5) vs vehicle) is “significantly inhibits formalin-induced flinching compared to vehicle in both treatment paradigms”. Besides, in series [4] (chronic treatment 5 days), the “antinociception Day 5 vs Day 1” value is recorded as “significantly more Compound Vb-induced antinociception than seen on Day 1”. The “antinociception after naloxone pretreatment” value in series [4] (naloxone 5 mg/kg s.c. 30 min prior) is recorded as “reversible by naloxone pretreatment”. Also, the “antinociception after nor-BNI pretreatment” value in series [4] (nor-BNI 5 mg/kg s.c. 24 hours prior) is recorded as “did not block Compound Vb's efficacy but rather significantly enhanced it”. The “development of antinociceptive tolerance” value in series [4] (repeated administration, 5 days) is listed as “did not lead to the development of antinociceptive tolerance”. The “antinociception in formalin paw-withdrawal test” value in series [4] (˜0.04 mg/kg s.c. paw, 5 min prior to 1.25% formalin, acute) is recorded as “produced significant antinociception in the second phase”. In addition, the “affinity for δOR” value at δOR is “no affinity”. For the same molecule, the “affinity at κOR” value at κOR was “retains some affinity”. Also, the μOR-YFP internalization entry on mouse μOR-YFP (HEK-293 overexpressing GRK2 (5 μg cDNA)) is listed as “does not”; at mouse μOR-YFP (setting [6]), “do not induce receptor internalization”. In addition, the βarr2-GFP translocation result at HA-μOR (HEK-293, 2 μM, 10 min) was “does not induce βarr2-GFP translocation”; on HA-μOR (HEK-293 overexpressing GRK2, 2 μM, 10 min) it was “does not promote βarr2-GFP translocation”; at HA-μOR (HEK-293 overexpressing GRK2, 100 μM, 30 min), “does not promote βarr2-GFP translocation”.
On to `C[C@@H](NC(=O)[C@@H](N)Cc1ccc(O)cc1)C(=O)NCC(=O)N(C)[C@@H](Cc1ccccc1)C(=O)NCCO` [DAMGO, [D-Ala^2, N-MePhe^4, Gly^5-ol]Enkephalin, reference compound], for which the “loss of cell surface receptors” value at HA-N-terminus tagged μOR is reported as 40%. For the same molecule, the μOR-YFP internalization entry on mouse μOR-YFP (setting [6]) was “Internalization can be seen”. The βarr2-GFP translocation entry at HA-μOR (HEK-293, 1 μM) is listed as “leads to βarr2-GFP translocation within 5 min”.
In the case of `CN1CC[C@]23c4c5ccc(O)c4O[C@H]2[C@@H](O)C=C[C@H]3[C@H]1C5` [morphine], the development of tolerance entry in series [5] is on record as “produces tolerance”.
